Measured values reported in PMC9288506, “Compounds activating VCP D1 ATPase enhance both autophagic and proteasomal neurotoxic protein clearance” (Nature Communications, 2022).

Columns and labels:
Experiment in all cases: biochemical
Design in all cases: Thermo Fisher in vitro kinase panel, per cent inhibition of kinase activity at 10 uM
AKT1 (PKB alpha) = AKT1 (PKB alpha) (Homo sapiens, UniProt P31749)
Description: (§1) Kinase profiling of SMER28 and analogs SMER28 and analogs were tested at 10 µM in a panel of 123 kinases at ThermoFisher Scientific. Follow-up of selected kinases for SMER28 and analogs was also performed at ThermoFisher Scientific. Data are shown in Supplementary Data 2 and 3. […] An inhibition of PIK3C could induce autophagy, mediated by signaling through the AKT/mTOR axis[45].

AURKC (Aurora C) = AURKC (Aurora C) (Homo sapiens, UniProt Q9UQB9)
Description: as §1

AXL = AXL (Homo sapiens, UniProt P30530)
Description: as §1

CDK7/cyclin H/MNAT1 = CDK7/cyclin H/MNAT1 (Homo sapiens, UniProt P50613)
Description: as §1

CDK9/cyclin T1 = CDK9/cyclin T1 (Homo sapiens, UniProt P50750)
Description: as §1

CSNK1G1 (CK1 gamma 1) = CSNK1G1 (CK1 gamma 1) (Homo sapiens, UniProt Q9HCP0)
Description: as §1

EPHA5 = EPHA5 (Homo sapiens, UniProt P54756)
Description: as §1

EPHB4 = EPHB4 (Homo sapiens, UniProt P54760)
Description: as §1

FGFR4 = FGFR4 (Homo sapiens, UniProt P22455)
Description: as §1

JAK2 = JAK2 (Homo sapiens, UniProt O60674)
Description: as §1

MAP2K1 (MEK1) = MAP2K1 (MEK1) (Homo sapiens, UniProt Q02750)
Description: as §1

MAPK1 (ERK2) = MAPK1 (ERK2) (Homo sapiens, UniProt P28482)
Description: as §1

MAPKAPK2 = MAPKAPK2 (Homo sapiens, UniProt P49137)
Description: as §1

MINK1 = MINK1 (Homo sapiens, UniProt Q8N4C8)
Description: as §1

NEK2 = NEK2 (Homo sapiens, UniProt P51955)
Description: as §1

PI4KB (PI4K beta) = PI4KB (PI4K beta) (Homo sapiens, UniProt Q9UBF8)
Description: as §1

PIM2 = PIM2 (Homo sapiens, UniProt Q9P1W9)
Description: as §1

PTK2 (FAK) = PTK2 (FAK) (Homo sapiens, UniProt Q05397)
Description: as §1

RAF1 (cRAF) Y340D Y341D = RAF1 (cRAF) Y340D Y341D (Homo sapiens, UniProt P04049, Y340D/Y341D)
Description: as §1

RET = RET (Homo sapiens, UniProt P07949)
Description: as §1

ROS1 = ROS1 (Homo sapiens, UniProt P08922)
Description: as §1

RPS6KA5 (MSK1) = RPS6KA5 (MSK1) (Homo sapiens, UniProt O75582)
Description: as §1

SRC = SRC (Homo sapiens, UniProt P12931)
Description: as §1

TNIK = TNIK (Homo sapiens, UniProt Q9UKE5)
Description: as §1

ULK2 = ULK2 (Homo sapiens, UniProt Q8IYT8)
Description: as §1

Sequence of PTK2 (FAK) (Q05397 whole entry): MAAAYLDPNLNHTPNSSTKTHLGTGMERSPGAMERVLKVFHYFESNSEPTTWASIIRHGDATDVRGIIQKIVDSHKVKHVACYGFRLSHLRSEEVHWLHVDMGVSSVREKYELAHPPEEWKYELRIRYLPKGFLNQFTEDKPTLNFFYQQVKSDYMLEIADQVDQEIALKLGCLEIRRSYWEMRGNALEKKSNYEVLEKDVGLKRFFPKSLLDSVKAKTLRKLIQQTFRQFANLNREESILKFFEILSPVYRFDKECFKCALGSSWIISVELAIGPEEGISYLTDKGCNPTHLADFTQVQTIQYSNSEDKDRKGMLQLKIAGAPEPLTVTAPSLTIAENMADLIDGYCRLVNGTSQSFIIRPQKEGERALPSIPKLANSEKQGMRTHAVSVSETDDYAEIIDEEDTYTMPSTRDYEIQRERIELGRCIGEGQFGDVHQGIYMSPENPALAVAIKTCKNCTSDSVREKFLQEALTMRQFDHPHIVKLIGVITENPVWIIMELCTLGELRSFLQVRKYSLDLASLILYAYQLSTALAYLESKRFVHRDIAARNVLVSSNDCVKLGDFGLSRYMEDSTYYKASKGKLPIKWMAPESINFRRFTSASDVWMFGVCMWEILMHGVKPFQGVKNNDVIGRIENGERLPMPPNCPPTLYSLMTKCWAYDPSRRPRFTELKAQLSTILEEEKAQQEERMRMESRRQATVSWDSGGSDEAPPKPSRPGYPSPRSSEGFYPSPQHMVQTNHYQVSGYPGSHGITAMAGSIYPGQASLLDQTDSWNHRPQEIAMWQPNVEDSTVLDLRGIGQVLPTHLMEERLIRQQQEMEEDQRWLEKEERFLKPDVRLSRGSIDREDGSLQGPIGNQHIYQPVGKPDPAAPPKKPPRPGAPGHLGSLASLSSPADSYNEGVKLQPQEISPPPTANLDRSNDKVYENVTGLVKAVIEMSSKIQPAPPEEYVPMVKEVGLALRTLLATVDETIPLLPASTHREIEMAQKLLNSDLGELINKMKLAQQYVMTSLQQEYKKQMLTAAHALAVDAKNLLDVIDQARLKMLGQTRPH
Sequence of SRC (P12931 whole entry): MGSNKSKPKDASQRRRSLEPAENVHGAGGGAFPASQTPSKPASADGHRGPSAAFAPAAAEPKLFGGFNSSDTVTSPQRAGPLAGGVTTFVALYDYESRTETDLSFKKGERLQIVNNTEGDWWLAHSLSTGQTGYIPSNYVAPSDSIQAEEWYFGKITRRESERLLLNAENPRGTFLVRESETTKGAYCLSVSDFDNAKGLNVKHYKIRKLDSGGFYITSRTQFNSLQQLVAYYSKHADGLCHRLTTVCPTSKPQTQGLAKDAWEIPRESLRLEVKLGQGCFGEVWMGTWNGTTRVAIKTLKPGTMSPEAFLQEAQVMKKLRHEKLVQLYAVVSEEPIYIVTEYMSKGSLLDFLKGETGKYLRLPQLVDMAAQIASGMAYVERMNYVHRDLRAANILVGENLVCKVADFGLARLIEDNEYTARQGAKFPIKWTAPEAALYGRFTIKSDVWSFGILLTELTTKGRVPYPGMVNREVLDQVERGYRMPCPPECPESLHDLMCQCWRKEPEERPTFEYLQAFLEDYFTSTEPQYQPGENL
Sequence of MAPK1 (ERK2) (P28482 whole entry): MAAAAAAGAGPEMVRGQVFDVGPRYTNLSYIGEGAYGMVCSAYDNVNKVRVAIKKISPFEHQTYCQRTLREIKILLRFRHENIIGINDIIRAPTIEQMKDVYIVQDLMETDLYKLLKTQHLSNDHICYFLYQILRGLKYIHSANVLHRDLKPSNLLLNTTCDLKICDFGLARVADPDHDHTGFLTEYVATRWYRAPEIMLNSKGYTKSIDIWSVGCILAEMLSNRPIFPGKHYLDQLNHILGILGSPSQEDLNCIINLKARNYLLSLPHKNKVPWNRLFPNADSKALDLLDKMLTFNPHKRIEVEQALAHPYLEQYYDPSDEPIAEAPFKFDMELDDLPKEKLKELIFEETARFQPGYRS
Sequence of MINK1 (Q8N4C8 whole entry): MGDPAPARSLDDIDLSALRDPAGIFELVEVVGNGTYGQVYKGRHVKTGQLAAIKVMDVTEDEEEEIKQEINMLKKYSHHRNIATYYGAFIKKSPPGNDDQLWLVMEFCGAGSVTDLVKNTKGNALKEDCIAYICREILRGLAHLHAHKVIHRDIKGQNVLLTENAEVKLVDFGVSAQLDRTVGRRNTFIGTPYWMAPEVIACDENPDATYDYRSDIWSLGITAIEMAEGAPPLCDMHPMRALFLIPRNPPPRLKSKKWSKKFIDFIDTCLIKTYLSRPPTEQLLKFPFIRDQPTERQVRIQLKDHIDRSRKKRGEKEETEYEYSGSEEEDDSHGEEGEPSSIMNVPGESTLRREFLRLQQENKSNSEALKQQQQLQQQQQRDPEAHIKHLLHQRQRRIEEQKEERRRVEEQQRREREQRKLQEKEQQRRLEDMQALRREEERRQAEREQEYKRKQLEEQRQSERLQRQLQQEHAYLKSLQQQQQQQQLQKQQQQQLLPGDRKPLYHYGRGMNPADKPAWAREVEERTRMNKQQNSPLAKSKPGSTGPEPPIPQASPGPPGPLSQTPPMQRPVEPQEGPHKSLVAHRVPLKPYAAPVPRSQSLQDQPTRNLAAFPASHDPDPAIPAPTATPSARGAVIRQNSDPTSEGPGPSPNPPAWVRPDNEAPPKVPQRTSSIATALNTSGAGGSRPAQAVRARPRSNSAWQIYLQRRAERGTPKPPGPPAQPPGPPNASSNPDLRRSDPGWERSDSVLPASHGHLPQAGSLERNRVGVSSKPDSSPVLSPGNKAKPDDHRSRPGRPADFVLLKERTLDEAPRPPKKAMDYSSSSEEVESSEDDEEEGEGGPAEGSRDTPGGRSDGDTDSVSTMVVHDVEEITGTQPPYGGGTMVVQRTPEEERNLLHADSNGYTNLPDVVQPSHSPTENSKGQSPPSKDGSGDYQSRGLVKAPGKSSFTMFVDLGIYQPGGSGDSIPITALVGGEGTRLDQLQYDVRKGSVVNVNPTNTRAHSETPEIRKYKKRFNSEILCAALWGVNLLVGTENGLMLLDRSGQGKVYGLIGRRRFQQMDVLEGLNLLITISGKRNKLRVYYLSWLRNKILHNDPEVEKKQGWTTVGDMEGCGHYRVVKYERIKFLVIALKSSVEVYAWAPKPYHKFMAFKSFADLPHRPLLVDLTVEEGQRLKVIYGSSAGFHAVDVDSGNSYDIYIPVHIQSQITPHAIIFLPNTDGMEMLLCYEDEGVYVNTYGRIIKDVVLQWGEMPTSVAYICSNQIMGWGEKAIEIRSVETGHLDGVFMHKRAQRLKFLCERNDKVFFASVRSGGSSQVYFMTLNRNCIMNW
Sequence of EPHB4 (P54760 whole entry): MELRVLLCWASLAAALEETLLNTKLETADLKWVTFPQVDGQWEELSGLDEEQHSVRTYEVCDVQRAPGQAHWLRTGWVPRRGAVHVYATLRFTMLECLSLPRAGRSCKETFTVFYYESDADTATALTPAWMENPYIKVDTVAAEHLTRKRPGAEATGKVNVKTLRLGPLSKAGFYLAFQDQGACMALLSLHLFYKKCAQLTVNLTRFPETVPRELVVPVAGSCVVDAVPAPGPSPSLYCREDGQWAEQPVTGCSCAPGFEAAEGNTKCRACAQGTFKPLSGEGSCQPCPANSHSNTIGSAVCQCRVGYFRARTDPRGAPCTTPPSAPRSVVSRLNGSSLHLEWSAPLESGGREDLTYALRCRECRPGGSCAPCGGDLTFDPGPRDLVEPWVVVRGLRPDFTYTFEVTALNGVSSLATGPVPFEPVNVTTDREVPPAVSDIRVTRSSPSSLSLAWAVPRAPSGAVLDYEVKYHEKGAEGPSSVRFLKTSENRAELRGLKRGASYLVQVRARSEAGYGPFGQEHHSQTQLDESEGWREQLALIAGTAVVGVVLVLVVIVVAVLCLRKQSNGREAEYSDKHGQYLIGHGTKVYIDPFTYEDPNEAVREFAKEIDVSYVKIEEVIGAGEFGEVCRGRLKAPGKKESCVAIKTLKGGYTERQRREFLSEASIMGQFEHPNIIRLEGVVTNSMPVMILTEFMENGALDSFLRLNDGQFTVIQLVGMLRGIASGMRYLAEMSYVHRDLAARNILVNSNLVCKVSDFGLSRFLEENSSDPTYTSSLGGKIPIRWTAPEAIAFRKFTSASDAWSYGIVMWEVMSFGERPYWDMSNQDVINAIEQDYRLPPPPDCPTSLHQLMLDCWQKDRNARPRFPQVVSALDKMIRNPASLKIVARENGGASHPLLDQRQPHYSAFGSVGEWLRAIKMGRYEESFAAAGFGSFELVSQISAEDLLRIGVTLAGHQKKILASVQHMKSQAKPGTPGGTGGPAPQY
Sequence of FGFR4 (P22455 whole entry): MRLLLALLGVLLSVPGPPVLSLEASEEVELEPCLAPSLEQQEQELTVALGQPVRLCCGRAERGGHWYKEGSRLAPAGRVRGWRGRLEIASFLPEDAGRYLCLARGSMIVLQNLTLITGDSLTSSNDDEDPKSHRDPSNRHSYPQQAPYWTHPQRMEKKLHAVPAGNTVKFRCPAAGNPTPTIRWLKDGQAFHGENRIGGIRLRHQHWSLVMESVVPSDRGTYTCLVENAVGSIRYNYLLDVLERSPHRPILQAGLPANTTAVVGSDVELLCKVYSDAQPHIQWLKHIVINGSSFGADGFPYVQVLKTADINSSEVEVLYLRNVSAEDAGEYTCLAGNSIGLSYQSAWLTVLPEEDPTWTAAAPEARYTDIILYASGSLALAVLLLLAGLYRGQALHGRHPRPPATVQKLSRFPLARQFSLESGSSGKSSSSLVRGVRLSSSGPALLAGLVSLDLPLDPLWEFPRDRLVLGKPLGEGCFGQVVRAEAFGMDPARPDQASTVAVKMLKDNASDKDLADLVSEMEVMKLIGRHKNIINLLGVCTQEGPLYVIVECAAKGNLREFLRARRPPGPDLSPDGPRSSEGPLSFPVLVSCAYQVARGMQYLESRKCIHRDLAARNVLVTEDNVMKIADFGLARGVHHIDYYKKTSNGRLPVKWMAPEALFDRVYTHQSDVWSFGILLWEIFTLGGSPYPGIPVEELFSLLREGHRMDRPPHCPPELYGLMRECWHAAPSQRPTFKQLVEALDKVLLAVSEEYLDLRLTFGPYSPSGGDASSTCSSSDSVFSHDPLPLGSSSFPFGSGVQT

In the case of `C=CCNc1ncnc2ccc(Br)cc12` [SMER28], the inhibition at 10 µM (AKT1 (PKB alpha)) is reported as 3%, the inhibition at 10 µM (AURKC (Aurora C)) is reported as -6% and the inhibition at 10 µM (AXL) is reported as 17%. The inhibition at 10 µM (CDK7/cyclin H/MNAT1) was 34%, the inhibition at 10 µM (CDK9/cyclin T1) was 40% and the inhibition at 10 µM (CSNK1G1 (CK1 gamma 1)) was 31%. It also gave an inhibition at 10 µM (EPHA5) of 7%, an inhibition at 10 µM (EPHB4) of -1% and an inhibition at 10 µM (FGFR4) of 7%. The inhibition at 10 µM (JAK2) was 3%, the inhibition at 10 µM (MAP2K1 (MEK1)) was 3% and the inhibition at 10 µM (MAPK1 (ERK2)) was -2%. For the same compound, the inhibition at 10 µM (MAPKAPK2) was 0%, the inhibition at 10 µM (MINK1) was 45% and the inhibition at 10 µM (NEK2) was -1%. The inhibition at 10 µM (PI4KB (PI4K beta)) was 66%, the inhibition at 10 µM (PIM2) was -15% and the inhibition at 10 µM (PTK2 (FAK)) was 8%. For the same compound, the inhibition at 10 µM (RAF1 (cRAF) Y340D Y341D) was 13%, the inhibition at 10 µM (RET) was 25% and the inhibition at 10 µM (ROS1) was 26%. For the same compound, the inhibition at 10 µM (RPS6KA5 (MSK1)) was -3%, the inhibition at 10 µM (SRC) was 2% and the inhibition at 10 µM (TNIK) was 38%. The inhibition at 10 µM (ULK2) was 3%.
